Experimental data taken from US12286443B2, “Bycyclic JAK inhibitors and uses thereof” (Insilico Medicine IP Limited, priority 2019, dated 2025).
pIC50: −log10 of the molar value.

Assays:
JAK1 = target: T1, JAK1 (Homo sapiens, UniProt P23458); assay: Inhibition of JAK1 kinase, LANCE Ultra TR-FRET assay; format: biochemical; conditions: 2 nM JAK1, 2x ATP 76 μM, 15 min pre-incubation, 90 min reaction, 23° C.
T1 construct: purchased Invitrogen PV4775
Outline: (§1)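 Enzyme, 50 nM ULight-JAK-1 peptide and compound (100 μM–1.7 nM, 11 points, duplicates) were preincubated 15 min in HEPES pH 7.5 buffer, and the reaction was started with 2× ATP stock (76 μM JAK1, 24 μM JAK2, 8 μM JAK3, 30 μM TYK2), 90 min, 23° C. Eu anti-phosphotyrosine TR-FRET 665/615; 4-parameter IC50.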

TYK2 = target: T2, TYK2 (Homo sapiens, UniProt P29597); assay: Inhibition of TYK2 kinase, LANCE Ultra TR-FRET assay; format: biochemical; conditions: 4 nM TYK2, 2x ATP 30 μM, 15 min pre-incubation, 90 min reaction, 23° C., read-out: tyk IC50
T2 construct: purchased Invitrogen PR8440C
T2 sequence (P29597 whole entry): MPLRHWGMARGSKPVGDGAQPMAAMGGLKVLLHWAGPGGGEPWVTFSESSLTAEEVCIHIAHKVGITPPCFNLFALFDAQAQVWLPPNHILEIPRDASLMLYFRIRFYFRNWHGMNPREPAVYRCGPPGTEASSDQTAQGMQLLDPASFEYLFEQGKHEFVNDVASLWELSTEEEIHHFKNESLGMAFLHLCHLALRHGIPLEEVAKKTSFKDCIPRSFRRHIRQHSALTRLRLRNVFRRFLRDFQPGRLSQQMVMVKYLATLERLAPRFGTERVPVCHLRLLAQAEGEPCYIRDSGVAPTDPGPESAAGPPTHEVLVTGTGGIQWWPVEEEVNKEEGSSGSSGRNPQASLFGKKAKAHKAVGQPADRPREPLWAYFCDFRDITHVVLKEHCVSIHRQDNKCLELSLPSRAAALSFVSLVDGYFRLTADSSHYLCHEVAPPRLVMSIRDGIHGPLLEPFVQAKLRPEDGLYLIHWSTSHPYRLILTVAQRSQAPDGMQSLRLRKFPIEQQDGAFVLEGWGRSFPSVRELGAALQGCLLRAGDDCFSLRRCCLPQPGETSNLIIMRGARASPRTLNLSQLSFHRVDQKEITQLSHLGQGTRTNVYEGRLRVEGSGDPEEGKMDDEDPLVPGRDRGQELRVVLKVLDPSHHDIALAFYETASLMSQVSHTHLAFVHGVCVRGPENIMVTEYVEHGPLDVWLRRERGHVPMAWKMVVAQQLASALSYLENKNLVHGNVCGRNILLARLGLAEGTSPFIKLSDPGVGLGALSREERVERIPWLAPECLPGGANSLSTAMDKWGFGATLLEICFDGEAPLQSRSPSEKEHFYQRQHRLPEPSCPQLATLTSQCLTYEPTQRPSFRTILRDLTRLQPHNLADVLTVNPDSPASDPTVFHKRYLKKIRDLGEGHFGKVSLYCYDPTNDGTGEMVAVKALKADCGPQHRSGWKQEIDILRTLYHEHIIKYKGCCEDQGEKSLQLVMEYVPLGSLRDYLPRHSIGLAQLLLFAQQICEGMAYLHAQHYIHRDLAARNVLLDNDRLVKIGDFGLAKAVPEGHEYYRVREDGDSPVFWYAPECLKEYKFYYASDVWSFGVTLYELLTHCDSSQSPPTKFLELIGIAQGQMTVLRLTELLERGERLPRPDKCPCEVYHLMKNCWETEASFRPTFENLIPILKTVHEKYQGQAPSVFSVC
Outline: as §1

JAK3 = target: T3, JAK3 (Homo sapiens, UniProt P52333); assay: Inhibition of JAK3 kinase, LANCE Ultra TR-FRET assay; format: biochemical; conditions: 2x ATP 8 μM, 15 min pre-incubation, 90 min reaction, 23° C.
T3 construct: purchased Invitrogen PV4080
T3 sequence (P52333 1-1124): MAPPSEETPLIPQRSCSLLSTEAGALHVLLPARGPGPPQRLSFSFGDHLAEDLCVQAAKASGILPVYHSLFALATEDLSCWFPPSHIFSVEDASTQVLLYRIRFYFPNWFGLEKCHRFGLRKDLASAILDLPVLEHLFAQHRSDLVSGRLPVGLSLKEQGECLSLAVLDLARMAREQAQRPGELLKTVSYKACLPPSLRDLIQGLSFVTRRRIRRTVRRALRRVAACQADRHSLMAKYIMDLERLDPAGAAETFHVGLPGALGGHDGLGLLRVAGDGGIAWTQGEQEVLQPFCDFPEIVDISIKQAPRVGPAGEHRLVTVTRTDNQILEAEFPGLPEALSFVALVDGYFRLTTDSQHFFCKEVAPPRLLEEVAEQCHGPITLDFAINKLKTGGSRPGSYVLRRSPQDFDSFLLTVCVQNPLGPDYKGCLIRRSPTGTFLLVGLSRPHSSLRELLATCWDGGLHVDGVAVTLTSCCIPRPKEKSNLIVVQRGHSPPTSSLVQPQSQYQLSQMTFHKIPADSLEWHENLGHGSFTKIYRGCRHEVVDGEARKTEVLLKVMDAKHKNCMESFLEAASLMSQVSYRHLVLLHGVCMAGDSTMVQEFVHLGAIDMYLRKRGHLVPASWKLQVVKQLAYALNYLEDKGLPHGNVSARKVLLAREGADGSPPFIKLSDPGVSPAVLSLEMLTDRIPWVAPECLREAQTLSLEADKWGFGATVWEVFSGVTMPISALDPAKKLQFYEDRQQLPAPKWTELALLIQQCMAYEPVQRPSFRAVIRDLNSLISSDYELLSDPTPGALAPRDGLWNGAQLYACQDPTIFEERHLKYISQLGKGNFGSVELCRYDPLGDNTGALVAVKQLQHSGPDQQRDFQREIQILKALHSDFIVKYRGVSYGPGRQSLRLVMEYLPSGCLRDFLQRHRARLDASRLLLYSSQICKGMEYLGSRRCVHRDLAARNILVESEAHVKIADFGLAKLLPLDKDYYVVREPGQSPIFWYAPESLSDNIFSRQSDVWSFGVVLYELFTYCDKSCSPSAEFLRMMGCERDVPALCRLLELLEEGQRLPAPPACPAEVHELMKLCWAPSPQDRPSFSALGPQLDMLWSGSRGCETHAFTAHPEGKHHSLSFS
Outline: as §1

Hut-78 cells = assay: Inhibition in Hut-78 cells (IL-2 stimulated, HTRF); format: cell-based; conditions: Homo sapiens, HuT78, read-out: Hut-78 cells IC50 (μM)
Protocol: Exemplary compounds were assayed to determine potency in inhibiting Hut-78 cells by determining IC50 values.
Hut-78 cells were cultures in IMDM+20% FBS medium. Cells were maintained in log phase before the assay. Cell pellets were collected and resuspended in serum-free and phenol-free RPMI 1640 medium. 40,000 cells/well (10 μL) were seeded in each well of a 384-well plate and incubated with and without compound for 2 hours at 37° C. and 5% C02. IL-2 was added (2 μL, final concentration 100 ng/mL) and the mixture was incubated for 10 min. Cells were lysed by adding 4 μL labeled antibodies and the mixture was incubated overnight. The plate was read using the HTRF protocol on an Envision plate reader. The data was analyzed using XL-fit software (Supplier: ID business solutions Ltd.; Software version: XL fit 5.0). Inhibition %=(Max−Sample value)/(Max−Min)*100.
In the table, “A” indicates an IC50 of less than 0.5 μM, “B” indicates an IC50 range from 0.5 μM to 1 μM; and “C” indicates an IC50 range from 1 μM to 10 μM. Also, “na” indicates data is not available.

JAK2 = target: T4, JAK2 (Homo sapiens, UniProt O60674); assay: Inhibition of JAK2 kinase, LANCE Ultra TR-FRET assay; format: biochemical; conditions: 2x ATP 24 μM, 15 min pre-incubation, 90 min reaction, 23° C.
T4 construct: purchased Invitrogen PV4210
T4 sequence (O60674 whole entry): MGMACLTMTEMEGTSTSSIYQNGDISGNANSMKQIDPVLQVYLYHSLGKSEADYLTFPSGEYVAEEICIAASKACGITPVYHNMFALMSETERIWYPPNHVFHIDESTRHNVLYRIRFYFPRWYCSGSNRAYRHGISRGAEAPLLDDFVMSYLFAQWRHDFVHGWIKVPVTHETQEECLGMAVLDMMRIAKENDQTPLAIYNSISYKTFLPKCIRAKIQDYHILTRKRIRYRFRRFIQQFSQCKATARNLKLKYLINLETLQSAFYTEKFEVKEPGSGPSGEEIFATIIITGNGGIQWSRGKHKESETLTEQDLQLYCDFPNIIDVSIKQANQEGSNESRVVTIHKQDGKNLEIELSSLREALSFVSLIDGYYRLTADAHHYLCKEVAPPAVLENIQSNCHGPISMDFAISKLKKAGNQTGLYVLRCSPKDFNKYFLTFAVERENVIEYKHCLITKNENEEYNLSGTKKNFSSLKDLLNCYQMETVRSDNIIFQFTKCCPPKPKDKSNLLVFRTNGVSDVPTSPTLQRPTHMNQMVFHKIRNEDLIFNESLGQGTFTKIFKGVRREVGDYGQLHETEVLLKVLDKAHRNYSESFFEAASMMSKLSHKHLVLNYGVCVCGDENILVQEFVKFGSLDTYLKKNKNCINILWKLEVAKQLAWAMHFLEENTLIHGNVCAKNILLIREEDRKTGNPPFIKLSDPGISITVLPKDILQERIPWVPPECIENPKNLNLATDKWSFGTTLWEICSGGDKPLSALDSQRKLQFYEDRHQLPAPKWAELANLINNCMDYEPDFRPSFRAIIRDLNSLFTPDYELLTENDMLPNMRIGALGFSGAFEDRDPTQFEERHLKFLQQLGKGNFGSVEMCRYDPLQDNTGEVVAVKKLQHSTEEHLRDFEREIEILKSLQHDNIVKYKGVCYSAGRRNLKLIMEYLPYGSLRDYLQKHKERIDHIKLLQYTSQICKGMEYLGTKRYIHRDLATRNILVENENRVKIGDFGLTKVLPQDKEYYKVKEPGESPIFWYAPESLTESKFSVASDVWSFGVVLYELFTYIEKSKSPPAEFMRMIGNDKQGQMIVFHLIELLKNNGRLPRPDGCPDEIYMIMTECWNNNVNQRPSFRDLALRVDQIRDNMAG
Outline: as §1

T1 sequence (P23458 whole entry): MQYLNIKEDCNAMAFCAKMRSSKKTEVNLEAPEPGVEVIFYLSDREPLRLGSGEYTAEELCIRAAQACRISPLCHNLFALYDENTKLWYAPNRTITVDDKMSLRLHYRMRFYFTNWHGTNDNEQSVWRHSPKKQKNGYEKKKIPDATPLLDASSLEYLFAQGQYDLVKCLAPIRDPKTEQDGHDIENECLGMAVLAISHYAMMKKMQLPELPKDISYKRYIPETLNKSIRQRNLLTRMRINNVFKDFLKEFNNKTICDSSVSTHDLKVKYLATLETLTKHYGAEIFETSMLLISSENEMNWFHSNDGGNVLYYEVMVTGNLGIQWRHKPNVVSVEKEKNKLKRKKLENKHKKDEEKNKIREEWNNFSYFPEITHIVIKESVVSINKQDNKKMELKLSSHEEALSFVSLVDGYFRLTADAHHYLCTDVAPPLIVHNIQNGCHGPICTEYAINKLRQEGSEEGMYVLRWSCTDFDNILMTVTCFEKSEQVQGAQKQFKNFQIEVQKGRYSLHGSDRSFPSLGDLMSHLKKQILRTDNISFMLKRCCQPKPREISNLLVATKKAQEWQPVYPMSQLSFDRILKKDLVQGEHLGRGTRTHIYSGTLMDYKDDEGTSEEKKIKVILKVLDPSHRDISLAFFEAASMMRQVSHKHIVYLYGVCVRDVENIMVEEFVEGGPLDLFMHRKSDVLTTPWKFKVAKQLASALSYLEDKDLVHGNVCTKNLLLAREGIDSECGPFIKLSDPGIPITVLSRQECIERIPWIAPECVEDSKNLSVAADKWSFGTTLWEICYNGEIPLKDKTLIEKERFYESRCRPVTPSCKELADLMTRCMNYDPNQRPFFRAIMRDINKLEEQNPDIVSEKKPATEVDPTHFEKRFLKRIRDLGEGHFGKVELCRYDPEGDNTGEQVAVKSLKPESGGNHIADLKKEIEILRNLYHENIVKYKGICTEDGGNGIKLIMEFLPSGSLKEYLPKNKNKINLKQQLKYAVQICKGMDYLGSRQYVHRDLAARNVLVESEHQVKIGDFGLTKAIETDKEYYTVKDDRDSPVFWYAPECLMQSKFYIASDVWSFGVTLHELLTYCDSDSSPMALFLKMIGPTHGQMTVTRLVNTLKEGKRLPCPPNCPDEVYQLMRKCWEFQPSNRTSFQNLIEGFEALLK

With `O=C(NCC(F)(F)F)c1noc2c1CN(c1ncnc3[nH]ccc13)CC2` [Compound 178] the pIC50 (JAK1) was over 7.00, the pIC50 (TYK2) was 5.70 to 6.30 and the pIC50 (JAK3) was over 7.00. For the same compound, the IC50 (Hut-78 cells) was 0.5 to 1 µM and the pIC50 (JAK2) was over 7.00.
